In US20100310451A1, “ALTERED N-CADHERIN PROCESSING IN TUMOR CELLS BY FURIN AND PROPROTEIN CONVERTASE 5A (PC5A)” (THE ROYAL INSTITUTION FOR THE ADVANCEMENT OF LEARN, priority 2007, published 2010):
The star is where a group is joined. Decanoyl = CCCCCCCCCC(=O)*; CH2Cl = ClC*

Tests used:
[1] = tested on: proprotein convertases (PCs); assay: N-cadherin proteolytic processing assay, transfected U251 and U343 glioma cells; format: cell-based, human; details: U251 and U343 cells transfected with N-cadherin; dec-cmk in culture medium
Experimental: (§1) To assess N-cadherin proteolytic processing, we devised an assay where N-terminal cleavage products were detected in the conditioned medium of cells using the proN antibody. Cells were transiently transfected with the appropriate construct(s), the conditioned medium was collected 36 h later, concentrated, and total protein concentration was determined using a Lowry assay (Biorad). Conditioned medium (15 μg protein) was run on a 15% gel, and cleavage products detected were as follows: a 17 kDa band corresponded to cleavage at the consensus site, and a 20 kDa band represented cleavage at the second site.

[2] = tested on: proprotein convertases (PCs); assay: N-cadherin proteolytic processing assay, transfected HeLa cells; format: cell-based; details: HeLa cells transfected with N-cadherin +/- FL-PC5A; 50 μM dec-cmk; proN antibody
Experimental: as §1

[3] = tested on: PC5A; assay: Endogenous PC5A cell surface localization, glioma cells; format: cell-based, human; details: U251 and U343 cells; heparin added to the cells
Experimental: (§2) Live-cell staining was carried out by incubating cells plated on coverslips with primary antibody diluted in medium without serum at 4° C. for 1 h. The cells were washed with PBS and fixed in 4% paraformaldehyde. Following washes with PBS, cells were incubated with fluorescent-conjugated secondary antibody diluted in 1% BSA, 0.02% TritonX, PBS, for 40 min at room temperature. Coverslips were then mounted and examined as above. For surface PC5A staining, cells were washed twice with ice-cold PBS, fixed with freshly prepared 3.7% paraformaldehyde for 10 min on ice, washed 3 times with PBS, incubated in 150 mM glycine for 5 min, washed once with PBS, blocked for 30 min in 1% BSA, incubated in primary antibody overnight at 4° C., washed 4 times with PBS, incubated with secondary antibody for 40 min at room temperature, and washed 4 times with PBS. Coverslips were mounted and examined as above.

[4] = tested on: PC5A; assay: PC5A cell surface localization, FL-PC5A transfected HeLa cells; format: cell-based; details: HeLa cells transfected with FL-PC5A; heparin added to culture medium; non-permeabilizing
Experimental: as §2

## Decanoyl-Arg-Val-Lys-Arg-chloromethylketone (Decanoyl-RVKR-CH2Cl) [dec-cmk]
[1]
  N-cadherin cleavage products in conditioned medium: no cleavage products detected
[2]
  N-cadherin cleavage products in conditioned medium: no cleavage products detected

## heparin
[3]
  PC5A detection at the cell surface: not detected
[4]
  PC5A detection on the cell surface: not detected
